Laboratory results reported in patent publication US20100099561A1, “HETEROBICYCLIC ALKYLTHIO-BRIDGED ISOXAZOLINES” (E.I. DU PONT DE NEMOURS AND COMPANY, priority 2008, published 2010).

Legend:
Assay type in all cases: in vivo
soybean (Glycine max) = experiment: Test B preemergence, soybean; details: Preemergence, scale 0 to 100
Excerpt: (§1) Seeds of plant species selected from blackgrass (Alopecurus myosuroides), downy bromegrass (Bromus tectorum), green foxtail (Setaria viridis), Italian ryegrass (Lolium multiflorum), wheat (Triticum aestivum), wild oat (Avena fatua), catchweed bedstraw (Galium aparine), bermudagrass (Cynodon dactylon), Surinam grass (Brachiaria decumbens), cocklebur (Xanthium strumarium), corn (Zea mays), large crabgrass (Digitaria sanguinalis), woolly cupgrass (Eriochloa villosa), giant foxtail (Setaria faberii), goosegrass (Eleusine indica), johnsongrass (Sorghum halepense), kochia (Kochia scoparia), lambsquarters (Chenopodium album), morningglory (Ipomoea coccinea), nightshade (eastern black nightshade, Solanum ptycanthum), yellow nutsedge (Cyperus esculentus), pigweed (Amaranthus retroflexus), ragweed (common ragweed, Ambrosia elatior), soybean (Glycine max), sunflower (common oilseed sunflower, Helianthus annuus), Russian thistle (Salsola kali), and velvetleaf (Abutilon theophrasti) were planted into a blend of loam soil and sand and treated preemergence with test compounds formulated in a non-phytotoxic solvent mixture which included a surfactant. Treated plants and controls were maintained in a greenhouse for 13 to 15 days, after which time all species were compared to controls and visually evaluated. Plant response ratings, summarized in Table B, are based on a scale of 0 to 100 where 0 is no effect and 100 is complete control. A dash (-) response means no test result.

[1] = system: nightshade (eastern black nightshade, Solanum ptycanthum); experiment: Test B preemergence, nightshade; details: scale 0 to 100
Excerpt: as §1

[2] = system: velvetleaf (Abutilon theophrasti); experiment: Test A postemergence, velvetleaf; details: 0 to 100 scale (0 no effect, 100 complete control)
Procedure, shortened: (§2)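 Ratings of 0–100 (0 no effect, 100 complete control) came from visual comparison with untreated controls after roughly ten days in a greenhouse. Plants in loam soil–sand blend were treated with compound in non-phytotoxic solvent plus surfactant, pre- or postemergence (one- to two-leaf stage).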

[3] = system: morningglory (Ipomoea coccinea); experiment: Test B preemergence, morningglory; details: scale 0 to 100
Excerpt: as §1

[4] = system: barnyardgrass (Echinochloa crus-galli); experiment: Test A preemergence, barnyardgrass; details: 0 to 100 scale (0 no effect, 100 complete control)
Procedure, shortened: as §2

[5] = system: ducksalad (Heteranthera limosa); experiment: Test B flooded paddy test, ducksalad; details: Flood, scale 0 to 100
Procedure, shortened: (§3)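 Paddy-water application to 2-leaf plants in pots held under 3 cm of flooding; response is a 0–100 visual control rating against controls after 13 to 15 days, and a dash marks a missing result.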

[6] = system: pigweed (Amaranthus retroflexus); experiment: Test A preemergence, pigweed; details: 0 to 100 scale (0 no effect, 100 complete control)
Procedure, shortened: as §2

[7] = system: Surinam grass (Brachiaria decumbens); experiment: Test B preemergence, Surinam grass; details: Preemergence, scale 0 to 100
Excerpt: as §1

[8] = system: wheat (Triticum aestivum); experiment: Test A preemergence, wheat; details: 0 to 100 scale (0 no effect, 100 complete control)
Procedure, shortened: as §2

[9] = system: large crabgrass (Digitaria sanguinalis); experiment: Test A preemergence, large crabgrass; details: 0 to 100 scale (0 no effect, 100 complete control)
Procedure, shortened: as §2

[10] = system: lambsquarters (Chenopodium album); experiment: Test B preemergence, lambsquarters; details: scale 0 to 100
Excerpt: as §1

[11] = system: wheat (Triticum aestivum); experiment: Test A postemergence, wheat; details: 0 to 100 scale (0 no effect, 100 complete control)
Procedure, shortened: as §2

[12] = system: giant foxtail (Setaria faberii); experiment: Test B preemergence, giant foxtail; details: scale 0 to 100
Excerpt: as §1

[13] = system: velvetleaf (Abutilon theophrasti); experiment: Test A preemergence, velvetleaf; details: 0 to 100 scale (0 no effect, 100 complete control)
Procedure, shortened: as §2

[14] = system: umbrella sedge (Cyperus difformis); experiment: Test B flooded paddy test, umbrella sedge; details: Flood, scale 0 to 100
Procedure, shortened: as §3

[15] = system: Italian ryegrass (Lolium multiflorum); experiment: Test B preemergence, Italian ryegrass; details: Preemergence, scale 0 to 100
Excerpt: as §1

[16] = system: barnyardgrass (Echinochloa crus-galli); experiment: Test B flooded paddy test, barnyardgrass; details: Flood
Procedure, shortened: as §3

corn (Zea mays) = experiment: Test B preemergence, corn; details: scale 0 to 100
Excerpt: as §1

[17] = system: barnyardgrass (Echinochloa crus-galli); experiment: Test A postemergence, barnyardgrass; details: 0 to 100 scale (0 no effect, 100 complete control)
Procedure, shortened: as §2

[18] = system: johnsongrass (Sorghum halepense); experiment: Test B preemergence, johnsongrass; details: scale 0 to 100
Excerpt: as §1

CC1(C)CC(S(=O)(=O)Cc2c(C(F)(F)F)nc3n(c2=O)CCO3)=NO1 [Compound 2, 6-[[(4,5-dihydro-5,5-dimethyl-3-isoxazolyl)sulfonyl]methyl]-2,3-dihydro-7-(trifluoromethyl)-5H-oxazolo[3,2-α]pyrimidin-5-one]
Plant response rating, Soybean (soybean (Glycine max); 31 g ai/ha): 0
Plant response rating, Soybean (soybean (Glycine max); 62 g ai/ha): 0
Plant response rating, Nightshade ([1]; 8 g ai/ha): 0
Plant response rating, Nightshade ([1]; 16 g ai/ha): 0
Plant response rating, Nightshade ([1]; 31 g ai/ha): 0
Plant response rating, Nightshade ([1]; 62 g ai/ha): 0
Plant response rating, Velvetleaf ([2]; 125 g ai/ha): 30
Plant response rating, Velvetleaf ([2]; 500 g ai/ha): 60
Plant response rating, Morningglory ([3]; 8 g ai/ha): 0
Plant response rating, Morningglory ([3]; 16 g ai/ha): 0
Plant response rating, Morningglory ([3]; 31 g ai/ha): 0
Plant response rating, Morningglory ([3]; 62 g ai/ha): 0
Plant response rating, Barnyardgrass ([4]; 125 g ai/ha): 80
Plant response rating, Barnyardgrass ([4]; 500 g ai/ha): 90
Plant response rating, Ducksalad ([5]; 62 g ai/ha): 0
Plant response rating, Ducksalad ([5]; 250 g ai/ha): 0
Plant response rating, Pigweed ([6]; 125 g ai/ha): 20
Plant response rating, Pigweed ([6]; 500 g ai/ha): 60
Plant response rating, Surinam Grass ([7]; 16 g ai/ha): 0
Plant response rating, Surinam Grass ([7]; 31 g ai/ha): 80
Plant response rating, Surinam Grass ([7]; 62 g ai/ha): 80
Plant response rating, Wheat ([8]; 125 g ai/ha): 10
Plant response rating, Wheat ([8]; 500 g ai/ha): 60
Plant response rating, Crabgrass, Large ([9]; 125 g ai/ha): 90
Plant response rating, Crabgrass, Large ([9]; 500 g ai/ha): 100
Plant response rating, Lambsquarters ([10]; 8 g ai/ha): 0
Plant response rating, Lambsquarters ([10]; 31 g ai/ha): 0
Plant response rating, Lambsquarters ([10]; 62 g ai/ha): 0
Plant response rating, Wheat ([11]; 125 g ai/ha): 0
Plant response rating, Wheat ([11]; 500 g ai/ha): 60
Plant response rating, Foxtail, Giant ([12]; 8 g ai/ha): 0
Plant response rating, Foxtail, Giant ([12]; 16 g ai/ha): 50
Plant response rating, Foxtail, Giant ([12]; 31 g ai/ha): 70
Plant response rating, Foxtail, Giant ([12]; 62 g ai/ha): 98
Plant response rating, Velvetleaf ([13]; 125 g ai/ha): 10
Plant response rating, Velvetleaf ([13]; 500 g ai/ha): 90
Plant response rating, Sedge, Umbrella ([14]; 62 g ai/ha): 0
Plant response rating, Sedge, Umbrella ([14]; 250 g ai/ha): 0
Plant response rating, Ryegrass, Italian ([15]; 16 g ai/ha): 0
Plant response rating, Ryegrass, Italian ([15]; 31 g ai/ha): 0
Plant response rating, Ryegrass, Italian ([15]; 62 g ai/ha): 0
Plant response rating, Barnyardgrass ([16]; 62 g ai/ha, scale 0 to 100): 0
Plant response rating, Barnyardgrass ([16]; 250 g ai/ha, scale 0 to 100 (0 no effect, 100 complete control)): 0
Plant response rating, Corn (corn (Zea mays); 8 g ai/ha): 0
Plant response rating, Corn (corn (Zea mays); 16 g ai/ha): 0
Plant response rating, Corn (corn (Zea mays); 31 g ai/ha): 0
Plant response rating, Corn (corn (Zea mays); 62 g ai/ha): 20
Plant response rating, Barnyardgrass ([17]; 125 g ai/ha): 70
Plant response rating, Barnyardgrass ([17]; 500 g ai/ha): 80
Plant response rating, Johnsongrass ([18]; 8 g ai/ha): 0
Plant response rating, Johnsongrass ([18]; 16 g ai/ha): 10
Plant response rating, Johnsongrass ([18]; 31 g ai/ha): 30
Plant response rating, Johnsongrass ([18]; 62 g ai/ha): 80
